Source: patent USRE48461E1, “Modulation of androgen receptor expression” (Ionis Pharmaceuticals, Inc., priority 2012, dated 2021)

Columns and labels:
Type in all cases: cell-based, human
[1] = test system: prostate-specific antigen (PSA) mRNA; assay: PSA mRNA levels in LMR20 cells; conditions: with or without DHT/R1881
Protocol: LMR20 cells were plated at 1,500 cells per well in phenol red-free medium with CSS. […] Results are presented in Tables 43-45 as mRNA levels expressed as a percentage of the baseline values. mRNA levels may be lowered or increased after treatment.

cleaved PARP = assay: Cleaved PARP western blot in VCaP cells
AR V7 variant mRNA = assay: AR V7 variant RNA in 22RV1 cells; conditions: RNAiMax, 48 hrs
TMPRSS2 mRNA [2] = assay: Time-course TMPRSS2 expression in C4-2B cells
How it was run: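 C4-2B cells at 1,000/well in complete medium, treated with antisense oligonucleotide; ISIS 549148 as negative control. PSA and TMPRSS2 mRNA measured after 8, 24 and 48 h, given as percent inhibition relative to non-treated cells.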

AR mRNA = assay: Time-course AR mRNA expression in C4-2B cells (8, 24, 48 hours); conditions: for Percent expression of AR compared to the control group in 8 hours / Percent expression of AR compared to the control group in 24 hours / Percent expression of AR compared to the control group in 48 hours: C4-2B cells
Protocol: C4-2B cells were plated at 1,000 cells per well in complete medium. […] After a treatment period of 8 hours, 24 hours, and 48 hours, AR expression was measured with primer probe set hAR-LTS00943.

TMPRSS2 mRNA [3] = assay: TMPRSS2 expression in LNCaP cells (complete, CSS+DHT medium); conditions: for Percent inhibition of TMPRSS2 expression in LNCaP cells cultured in CSS + DHT medium: CSS + DHT (1 nM) medium, 48 hrs; for Percent inhibition of TMPRSS2 expression in LNCaP cells cultured in complete medium: 48 hours
How it was run: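 LNCaP cells treated with antisense oligonucleotides, ISIS 549148 as negative control; AR, PSA and TMPRSS2 RNA measured after 48 h. Complete medium used 1,000 cells/well; stripped-serum condition used 2,000 cells/well in phenol red-free RPMI with 5% charcoal-stripped serum, with 1 nM DHT (final) added 4 h after treatment.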

C4-2B cells = assay: C4-2B cell proliferation, ASO in combination with MDV3100 (Example 21); conditions: for Proliferation (% untreated control) in C4-2B without MDV-3100: 5 days
Protocol: C4-2B cells were plated at 1,000 cells per well. […] ISIS 549148 was included as a negative control. […] After a treatment period of 5 days, the proliferative capacity of the cancer cells was measured with CellTiter 96® AQueous One Solution Cell Proliferation kit (Promega), following the manufacturer's instructions. […]

TMPRSS2 mRNA [4] = assay: TMPRSS2 expression in C4-2 cells; conditions: 48 hrs; for Percent inhibition of TMPRSS2 expression: C4-2 cells, CSS + DHT medium
Protocol: Cells were plated at 1,000 cells per well. […] After an incubation period of 48 hrs, RNA levels of AR, PSA and TMPRSS2 were measured.
Cells were plated at 2,000 cells per well and cultured in CSS media with 1 nM DHT. […] After an incubation period of 48 hrs, RNA levels of AR, PSA and TMPRSS2 were measured.

Sequence: TTGATTTAATGGTTGC [ISIS 560131] (MOE and (S)-cEt gapmer chemistry, further chemistry not given here) [targets intron 1]
- PSA mRNA levels in LMR20 cells [1]: reduced PSA levels and TMPRSS2 more extensively than the LNA gapmer ISIS 554221 or MDV3100
- cleaved PARP levels (western blot) (cleaved PARP): increased in a dose-dependent manner
- Percent inhibition of AR V7 variant (AR V7 variant mRNA; CSS + DHT medium, 1.34 nM): 63%
- Percent inhibition of AR V7 variant (AR V7 variant mRNA; CSS + DHT medium, 4.0 nM): 83%
- Percent inhibition of AR V7 variant (AR V7 variant mRNA; CSS + DHT medium, 13.4 nM): 93%
- Percent inhibition of AR V7 variant (AR V7 variant mRNA; complete medium, 1.34 nM): 12%
- Percent inhibition of AR V7 variant (AR V7 variant mRNA; complete medium, 4.0 nM): 29%
- Percent inhibition of AR V7 variant (AR V7 variant mRNA; complete medium, 13.4 nM): 57%
- Percent inhibition of AR V7 variant (AR V7 variant mRNA; complete medium, 40 nM): 81%
- Percent inhibition of TMPRSS2 expression compared to the control group in 8 hours (TMPRSS2 mRNA [2]; 0.04 μM): 0%
- Percent inhibition of TMPRSS2 expression compared to the control group in 24 hours (TMPRSS2 mRNA [2]; 0.04 μM): 35%
- Percent inhibition of TMPRSS2 expression compared to the control group in 48 hours (TMPRSS2 mRNA [2]; 0.04 μM): 46%
- Percent inhibition of TMPRSS2 expression compared to the control group in 8 hours (TMPRSS2 mRNA [2]; 0.2 μM): 0%
- Percent inhibition of TMPRSS2 expression compared to the control group in 24 hours (TMPRSS2 mRNA [2]; 0.2 μM): 57%
- Percent inhibition of TMPRSS2 expression compared to the control group in 48 hours (TMPRSS2 mRNA [2]; 0.2 μM): 71%
- Percent inhibition of TMPRSS2 expression compared to the control group in 8 hours (TMPRSS2 mRNA [2]; 1 μM): 6%
- Percent inhibition of TMPRSS2 expression compared to the control group in 24 hours (TMPRSS2 mRNA [2]; 1 μM): 66%
- Percent inhibition of TMPRSS2 expression compared to the control group in 48 hours (TMPRSS2 mRNA [2]; 1 μM): 77%
- Percent inhibition of TMPRSS2 expression compared to the control group in 8 hours (TMPRSS2 mRNA [2]; 5.0 μM): 0%
- Percent inhibition of TMPRSS2 expression compared to the control group in 24 hours (TMPRSS2 mRNA [2]; 5.0 μM): 67%
- Percent inhibition of TMPRSS2 expression compared to the control group in 48 hours (TMPRSS2 mRNA [2]; 5.0 μM): 76%
- TMPRSS2 expression (TMPRSS2 mRNA [2]; time course): reduced PSA and TMPRSS2 expression in the cells relative to the control set at the 24 hr and 48 hr time points
- Percent expression of AR compared to the control group in 8 hours (AR mRNA; 0.04 μM): 110%
- Percent expression of AR compared to the control group in 24 hours (AR mRNA; 0.04 μM): 47%
- Percent expression of AR compared to the control group in 48 hours (AR mRNA; 0.04 μM): 33%
- Percent expression of AR compared to the control group in 8 hours (AR mRNA; 0.2 μM): 85%
- Percent expression of AR compared to the control group in 24 hours (AR mRNA; 0.2 μM): 18%
- Percent expression of AR compared to the control group in 48 hours (AR mRNA; 0.2 μM): 5%
- Percent expression of AR compared to the control group in 8 hours (AR mRNA; 1 μM): 68%
- Percent expression of AR compared to the control group in 24 hours (AR mRNA; 1 μM): 5%
- Percent expression of AR compared to the control group in 48 hours (AR mRNA; 1 μM): 6%
- Percent expression of AR compared to the control group in 8 hours (AR mRNA; 5.0 μM): 45%
- Percent expression of AR compared to the control group in 24 hours (AR mRNA; 5.0 μM): 4%
- Percent expression of AR compared to the control group in 48 hours (AR mRNA; 5.0 μM): 4%
- AR expression (AR mRNA; C4-2B cells, 8, 24 and 48 hours): reduced AR expression in the cells relative to the control set
- Percent inhibition of TMPRSS2 expression in LNCaP cells cultured in CSS + DHT medium (TMPRSS2 mRNA [3]; 0.04 μM): 6%
- Percent inhibition of TMPRSS2 expression in LNCaP cells cultured in CSS + DHT medium (TMPRSS2 mRNA [3]; 0.2 μM): 11%
- Percent inhibition of TMPRSS2 expression in LNCaP cells cultured in CSS + DHT medium (TMPRSS2 mRNA [3]; 1 μM): 26%
- Percent inhibition of TMPRSS2 expression in LNCaP cells cultured in CSS + DHT medium (TMPRSS2 mRNA [3]; 5.0 μM): 64%
- Percent inhibition of TMPRSS2 expression in LNCaP cells cultured in complete medium (TMPRSS2 mRNA [3]; 0.04 μM): 0%
- Percent inhibition of TMPRSS2 expression in LNCaP cells cultured in complete medium (TMPRSS2 mRNA [3]; 0.2 μM): 25%
- Percent inhibition of TMPRSS2 expression in LNCaP cells cultured in complete medium (TMPRSS2 mRNA [3]; 1 μM): 50%
- Percent inhibition of TMPRSS2 expression in LNCaP cells cultured in complete medium (TMPRSS2 mRNA [3]; 5.0 μM): 51%
- Proliferation (% untreated control) in C4-2B with 0.08 μM MDV-3100 (C4-2B cells; ASO dose 0.04 μM + 0.08 μM MDV-3100): 73 % untreated control
- Proliferation (% untreated control) in C4-2B with 0.4 μM MDV-3100 (C4-2B cells; ASO dose 0.04 μM + 0.4 μM MDV-3100): 69 % untreated control
- Proliferation (% untreated control) in C4-2B with 2.0 μM MDV-3100 (C4-2B cells; ASO dose 0.04 μM + 2.0 μM MDV-3100): 42 % untreated control
- Proliferation (% untreated control) in C4-2B with […] MDV-3100 (C4-2B cells; ASO dose 0.04 μM + […] MDV-3100): 71 % untreated control
- Proliferation (% untreated control) in C4-2B without MDV-3100 (C4-2B cells; ASO dose 0.04 μM): 59 % untreated control
- Proliferation (% untreated control) in C4-2B with 0.08 μM MDV-3100 (C4-2B cells; ASO dose 0.08 μM + 0.08 μM MDV-3100): 66 % untreated control
- Proliferation (% untreated control) in C4-2B with 0.4 μM MDV-3100 (C4-2B cells; ASO dose 0.08 μM + 0.4 μM MDV-3100): 69 % untreated control
- Proliferation (% untreated control) in C4-2B with 2.0 μM MDV-3100 (C4-2B cells; ASO dose 0.08 μM + 2.0 μM MDV-3100): 37 % untreated control
- Proliferation (% untreated control) in C4-2B with […] MDV-3100 (C4-2B cells; ASO dose 0.08 μM + […] MDV-3100): 104 % untreated control
- Proliferation (% untreated control) in C4-2B without MDV-3100 (C4-2B cells; ASO dose 0.08 μM): 84 % untreated control
- Proliferation (% untreated control) in C4-2B with 0.08 μM MDV-3100 (C4-2B cells; ASO dose 0.2 μM + 0.08 μM MDV-3100): 56 % untreated control
- Proliferation (% untreated control) in C4-2B with 0.4 μM MDV-3100 (C4-2B cells; ASO dose 0.2 μM + 0.4 μM MDV-3100): 48 % untreated control
- Proliferation (% untreated control) in C4-2B with 2.0 μM MDV-3100 (C4-2B cells; ASO dose 0.2 μM + 2.0 μM MDV-3100): 49 % untreated control
- Proliferation (% untreated control) in C4-2B with […] MDV-3100 (C4-2B cells; ASO dose 0.2 μM + […] MDV-3100): 53 % untreated control
- Proliferation (% untreated control) in C4-2B without MDV-3100 (C4-2B cells; ASO dose 0.2 μM): 47 % untreated control
- Proliferation (% untreated control) in C4-2B with 0.08 μM MDV-3100 (C4-2B cells; ASO dose 1.0 μM + 0.08 μM MDV-3100): 42 % untreated control
- Proliferation (% untreated control) in C4-2B with 0.4 μM MDV-3100 (C4-2B cells; ASO dose 1.0 μM + 0.4 μM MDV-3100): 48 % untreated control
- Proliferation (% untreated control) in C4-2B with 2.0 μM MDV-3100 (C4-2B cells; ASO dose 1.0 μM + 2.0 μM MDV-3100): 43 % untreated control
- Proliferation (% untreated control) in C4-2B with […] MDV-3100 (C4-2B cells; ASO dose 1.0 μM + […] MDV-3100): 39 % untreated control
- Proliferation (% untreated control) in C4-2B without MDV-3100 (C4-2B cells; ASO dose 1.0 μM): 41 % untreated control
- synergy with MDV3100 (C4-2B cells; C4-2B cells): synergistic with MDV3100
- cell proliferation inhibited, combination (C4-2B cells; C4-2B cells, 0.08 μM ASO in combination with 0.4 μM MDV3100): 31%
- inhibited cell proliferation, ASO alone (C4-2B cells; C4-2B cells, ASO alone at 0.08 μM): 16%
- Percent inhibition of TMPRSS2 expression (TMPRSS2 mRNA [4]; 0.04 μM): 10%
- Percent inhibition of TMPRSS2 expression (TMPRSS2 mRNA [4]; 0.2 μM): 17%
- Percent inhibition of TMPRSS2 expression (TMPRSS2 mRNA [4]; 1 μM): 51%
- Percent inhibition of TMPRSS2 expression (TMPRSS2 mRNA [4]; 5.0 μM): 78%
- Percent inhibition of TMPRSS2 expression in C4-2 cells cultured in complete medium (TMPRSS2 mRNA [4]; 0.04 μM): 29%
- Percent inhibition of TMPRSS2 expression in C4-2 cells cultured in complete medium (TMPRSS2 mRNA [4]; 0.2 μM): 62%
- Percent inhibition of TMPRSS2 expression in C4-2 cells cultured in complete medium (TMPRSS2 mRNA [4]; 1 μM): 76%
- Percent inhibition of TMPRSS2 expression in C4-2 cells cultured in complete medium (TMPRSS2 mRNA [4]; 5.0 μM): 71%
